The values below come from patent US20090061022A1, “Pharmaceutical composition comprising arsenite for the treatment of malignancy” (priority 2004, published 2009).

One series deals with MEXF 462NL. Briefly: Cytotoxic activity, propidium iodide fluorescence assay, panel of 9 human cancer cell lines. The series is classed as cell-based. As to conditions: MEXF 462NL melanoma, 3-7 days. How it is done: Three kinds of stock solutions were prepared for in vitro cytotoxic activity test. The first solution is DMSO (dimethyl sulfoxide) mixed with sodium meta-arsenite. […] The third solution is DMSO mixed with arsenic acid sodium salt. Those three solutions were diluted with culture medium (RPMI 1640). The final concentrations of DMSO in those three solutions are less than 0.3 vol %.
Nine kinds of human cancer cell lines out of six kinds of cancers were grown at 37° C. under a controlled atmosphere of 95% air and 5% CO2. The cells were grown on monolayer cultures of RPMI 1640 cell culture medium supplemented with 10% fetal calf serum.
The grown cells were harvested from exponential phase cultures by trypsinization and counted. The counted cells were placed in a plate, which has ninety six wells. Each well on the plate is in a shape of a flat-bottomed microtitre. Density of the cells in a suspension was adjusted depending on the cell line. The suspension was prepared by diluting the grown cells with the culture medium (RPMI 1640). Concentration of the cells were varied from 5×10^4 to 1×10^5 viable cells/ml. 100 μl of the suspension was placed in each well of the plate. […] Then add 50 μl of culture medium (RPMI 1640) only to 6 wells, 50 μl/well, among the 96 wells of one plate. It is called controlled. One well is filled with culture medium plus 5-FU. And another 50 μl of culture medium plus one of the stock solutions were added to each of the left 89 wells to allow cells to resume exponential growth.
The cytotoxic activity test was executed with three plates simultaneously to check reliability of the data obtained. The three plates contain the same samples of cancer cells. The three plates were then incubated for 3-7 days under the same controlled atmosphere and cell proliferation was assessed with a modified propodium iodide fluorescence assay. After thawing of the plates, fluorescence was measured using a Millipore Cytofluor 2350-microplate reader (excitation 530 nm emission 620 nm) in order to quantify the total cell number. The assay included untreated and positive controls containing 5-FU.
Growth inhibition is defined as (numbers of cancer cell alive) treated (T)/(number of cells) control (C)×100% (T/C %).

For the next series, the system named is RXF 944LX. Briefly: Dose finding study in human renal cancer model RXF 944LX in nude mice (i.p. days 0, 7, 14). The note with it: for BW loss % (day) / Drug-related deaths / Rating / SGD (specific growth delay) / T/C %: days 0, 7, 14. The source says: In a dose finding study, the potential anticancer activity of sodium meta-arsenite and arsenic acid sodium salt versus arsenic trioxide was examined in the human renal cancer model, RXF 944LX.
Cancer fragments (1-2 mm in diameter), obtained from xenografts in serial passage in nude mice, were implanted subcutaneously (S.C.) in a flank of male NRMI nude mice (one fragment per mouse). Mice with appropriate cancer volumes (5-7 mm in diameter) were randomly distributed to treatment and control groups (4 mice/group). The start of treatment was day 0. Cancer volume and body weights were measured at least twice per week.
1) Sodium meta-arsenite (3, 10, 30 mg/kg/day), 2) Arsenic acid sodium salt (3, 10, 30 mg/kg/day) and 3) Arsenic trioxide (3, 10, 30 mg/kg/day) were administered intraperitoneally (i.p.) once daily on days 0, 7 and 14.
Stock solution of sodium meta-arsenite and arsenic acid sodium salt (3 mg/ml) were prepared in 5% (w/v) dextrose solution, respectively, to minimize acute arsenic toxicity. For arsenic trioxide, 9 mg of arsenic trioxide was dissolved in 1M NaOH (75 μl) followed by mixing with sterile aqua injectabilia (2175 μl) and sterile 20% (w/v) dextrose in water (500 μl). Further dilution to the desired concentration was done with a 5% dextrose solution to give a final concentration of 3 mg/ml.
The cancer volume of each animal was determined by two-dimensional measurement using calipers. The volume was calculated according to the formula: (a×b^2)×0.5; wherein a and b represent two perpendicular diameters in which a (length) is the larger diameter and b (width) the smaller diameter.
Relative cancer volumes (RCV) were calculated for each individual cancer by dividing the cancer volume on day X by the cancer volume on day 0 multiplied by 100%. The cancer volume of a treatment group was expressed as the median RCV of all mice of the group. Median RCV values were used for drawing growth curves and treatment evaluation. Optimal cancer growth inhibition at a particular day within the treatment period was calculated from the median RCV values of the treated (T) versus the controlled (C) group multiplied by 100%. A T/C value<50% was considered as anti-cancer activity.

The nature of series [1]: Maximum tolerated dose assessment after daily oral administration for 14 days in the pig. The series is classed as in vivo, pigs (large white×landrace×pietrain). The source says: The aims of this study were to establish a MTD and the kinetics of sodium meta-arsenite after repeated administration to pigs.
Sodium meta-arsenite was formulated using enteric-coated capsules (size no. 2) for a toxicology study in pigs. Cellulose-based clear capsules contained 1) sodium meta-arsenite as an active ingredient, 2) microcrystalline cellulose and colloidal silicon dioxide as excipients. The coating material of the capsules comprised of Eudragit L 12.5 (acrylic polymer) and Macrogol 6000 (polyethylene glycol as softener). It is resistant to gastric fluid at least for 1 hour.
The oral route was selected, as it is the intended route of administration in human. Based on previous studies, the following doses were selected: 7.5 and 10 mg/pig (equivalent to 24.5 and 32.5 mg/man). Capsules (enteric coated, size no. 2) of sodium meta-arsenite in concentrations of 7.5 and 10 mg/capsule, formulations, were stored in a refrigerator in the dark. Each dose was administered orally by gavages to groups of 12 male growing pigs (large white×landrace×pietrain) for 14 days, followed by a 14-day recovery period. The mean weight of the pigs was 16.8±2.3 kg at the beginning of the study.
Mortality and viability were checked twice daily, clinical examinations were performed daily and body weight was recorded twice a week. Scheduled termination was performed on day 29 (after 14 days of recovery). Macroscopic examination was performed on all animals and samples from brain (cerebellum, mid brain, cortex), heart, kidney, liver, lung, spleen, stomach wall, small intestine and large intestine taken for histopathology.
Blood samples (10 ml) of both dose groups were collected for hematology and biochemistry analysis on days −2, −1, 0, 7, 14, 21, 28. The samples collected during the treatment period were taken prior to the administration of the next drug. […]

The mark [2] stands for this setting: 10 mg/kg i.p., listed as sodium meta-arsenite.

`O=[As][O-].[Na+]` [Sodium meta-arsenite, sodium meta-arsenite]: the “T/C % at drug concentration” value in the series with MEXF 462NL (1 μg/ml) stood at 112%; with MEXF 462NL (3 μg/ml), 120%; in the series with MEXF 462NL (10 μg/ml), 101%; in the series with MEXF 462NL (30 μg/ml), 91%; in the series on MEXF 462NL (100 μg/ml) it was 15%. Moreover, the figures for the “BW loss % (day)” value in the series on RXF 944LX (3 mg/kg i.p.), in the series on RXF 944LX (10 mg/kg i.p.) and in the series with RXF 944LX (setting [2]) were “+6.8 (21) %”, “+8.7 (21) %” and “no lethality or body weight loss was observed”, respectively. The Drug-related deaths with RXF 944LX (3 mg/kg i.p.) is 0/4; with RXF 944LX (10 mg/kg i.p.), 0/4; with RXF 944LX (setting [2]), “no lethality or body weight loss was observed”; in the series on RXF 944LX (30 mg/kg i.p.) it was 4/4; with RXF 944LX (30 mg/kg i.p., listed as sodium meta-arsenite), “died within a few days after the first injection”. Moreover, the Rating result was “+ (+T/C < 50)” with RXF 944LX (3 mg/kg i.p.) and “− (−T/C ≧ 50%)” with RXF 944LX (10 mg/kg i.p.). Besides, the “SGD (specific growth delay)” value with RXF 944LX (3 mg/kg i.p.) is given as 0.4; in the series with RXF 944LX (10 mg/kg i.p.), −0.1. Also, the T/C % in the series on RXF 944LX (3 mg/kg i.p.) is 19%; with RXF 944LX (10 mg/kg i.p.), 51%. In addition, the “Maximum Tolerated Dose (MTD)” value in the series on RXF 944LX (i.p. once daily on days 0, 7 and 14, RXF 944LX bearing nude mice) is on record as 10 mg/kg/day. In addition, the “Hematological and biochemical parameters” value in series [1] (7.5 and 10 mg/pig, 14 days) is recorded as “No (statistical) significant differences”. In addition, the Mortality entry in series [1] (7.5 and 10 mg/pig, enteric-coated capsules, 14 days + 14-day recovery) is recorded as “No pigs died or were killed in extremis”. Moreover, the “Drug related side effects” value in series [1] (pigs at the doses of 7.5 and 10 mg/day) is on record as “did not induce any drug related side effects”.
